According to patent publication US20030237103A1, “Methods and compositions for pharmacological and toxicological evaluation of test agents” (priority 2002, published 2003):

What was measured:
[1] = system: Panel and outbred (CD-IGS) rat strains; experiment: Clinical chemistry endpoints of cisplatin-treated vs. vehicle rats; format: in vivo; parameters: T-test value AST / T-test value ALT: unit not given here; settings: cisplatin 5 mg/Kg vs. vehicle
[2] = system: Panel and outbred (CD-IGS) rat strains; experiment: Proteinuria, glucose excretion and renal histology after cisplatin; format: in vivo; settings: 5 mg/Kg cisplatin
[3] = system: Panel, CD-IGS and parental rat strains; experiment: Plasma triglyceride lowering by clofibrate; format: in vivo; settings: between WKY×LEW, WKY×BN and WKY×F344; 250 mg/Kg
Method: Triglyceride levels in plasma were measured following euthanasia on day 7. Plotted are the percent differences in triglyceride values in a particular drug treatment group.

[4] = system: Panel, CD-IGS and parental rat strains; settings: in vivo, 250 mg/kg
Method: Alanine transferase (ALT) levels in plasma an index of liver damage were measured in outbred and inbred strains (top panel) and the Panel F1 hybrids (bottom panel) following euthanasia on day 7. Plotted are the average ALT values for drug (left) and vehicle (right) within a particular drug treatment group (designated by strain). The number of animals tested in each group is denoted below the strain designation in parenthesis as # drug treated animas/#vehicle treated animals.
We delivered the clofibrate orally by gavage (250 mg/Kg in hydroxyproply methyl cellulose) to the rats on 6 consecutive days.

[5] = system: Panel, CD-IGS and parental rat strains; experiment: Liver histology after clofibrate; format: in vivo
From the text: Hypolipidemic drugs, such as clofibrate, commonly induce peroxisomal proliferation and an increase in the activity of peroxisomal beta-oxidation pathway. We looked for these changes in our rats by histological analysis of a section of the left lateral lobe from livers of either clofibrate or vehicle treated rats. While we could detect cellular differences (e.g. hepatocelluar hypertrophy, hepatocellular vacuolization, anisokaryosis and portal lymphocytic infiltrates) among the clofibrate treated livers versus the vehicle controls within any strain.

[6] = system: rat liver peroxisomal fatty-acyl CoA oxidase; experiment: Fluorometric assay of liver peroxisomal fatty-acyl CoA oxidase (FAO) activity after clofibrate; format: in vivo; settings: CD-IGS rats
Method: Peroxisomal fractions from livers of each strain were measured for FAO activity. In order to account for intra-strain variability, graphed are the average values derived by subtracting the vehicle FAO (average) from each individual drug induced FAO. The y-axis represents the FAO activity (nmol H2O2 per minute-mg peroximal protein).
The assay was done by using a fluorometric assay for rat liver peroxisomal fafty-acyl CoA oxidase activity (FAO). The first step of this assay uses a palmitoyl-CoA dependent NAD+ reducing system to oxidize FAO and produce H2O2. The H2O2 is then coupled in a peroxidase catalyzed reaction to the oxidation of scopoletin, a naturally fluorescent compound. A fall in fluorescence of the sample indicates an increase in FAO activity which subsequently reflects the increase in the fatty acid oxidase in the liver.
Six clofibrate samples and four vehicle samples were individually tested for FAO activity in duplicate tests. Using an H2O2 standard curve enables the change in fluorescence to be converted to FAO activity units (Walusimbi-Kisitu, M. and E. H. Harrison, J. Lipid Res. 24(8):1077-1084, 1983).

## N.N.[Cl][Pt][Cl] [cisplatin]
[1]; BNxF344 rats
  T-test value ALB: 0.111
  T-test value ALP: 0.157
  T-test value ALT: 0.600
  T-test value ANION GAP: 0.069
  T-test value AST: 0.780
  T-test value BICARB: 0.003
  T-test value BUN: 0.002
  T-test value CA: 0.642
  T-test value CHOL: 0.001
  T-test value CREAT: 0.001
  T-test value GGT: 0.351
  T-test value GLOB: 0.116
  T-test value GLU: 0.477
  T-test value K: 0.133
  T-test value NA: 0.851
  T-test value PHOS: 0.230
  T-test value TBILI: 0.005
  T-test value TP: 0.877
  T-test value TRIG: 0.153
[1]; CD-IGS rats
  T-test value ALB: 0.096
  T-test value ALP: 0.567
  T-test value ALT: 0.732
  T-test value ANION GAP: 0.440
  T-test value AST: 0.433
  T-test value BICARB: 0.436
  T-test value BUN: 0.003
  T-test value CA: 0.268
  T-test value CHOL: 0.393
  T-test value CREAT: 0.002
  T-test value GGT: 0.351
  T-test value GLOB: 0.750
  T-test value GLU: 0.965
  T-test value K: 0.465
  T-test value NA: 0.095
  T-test value PHOS: 0.943
  T-test value TBILI: 0.742
  T-test value TP: 0.080
  T-test value TRIG: 0.133
[1]; LEWxBN rats
  T-test value ALB: 0.000
  T-test value ALP: 0.001
  T-test value ALT: 0.593
  T-test value ANION GAP: 0.058
  T-test value AST: 0.341
  T-test value BICARB: 0.016
  T-test value BUN: 0.000
  T-test value CA: 0.333
  T-test value CHOL: 0.000
  T-test value CREAT: 0.000
  T-test value GGT: 0.339
  T-test value GLOB: 0.007
  T-test value GLU: 0.024
  T-test value K: 0.036
  T-test value NA: 0.230
  T-test value PHOS: 0.063
  T-test value TBILI: 0.463
  T-test value TP: 0.148
  T-test value TRIG: 0.085
[1]; LEWxF344 rats
  T-test value ALB: 0.534
  T-test value ALP: 0.214
  T-test value ALT: 0.979
  T-test value ANION GAP: 0.711
  T-test value AST: 0.739
  T-test value BICARB: 0.596
  T-test value BUN: 0.000
  T-test value CA: 0.448
  T-test value CHOL: 0.000
  T-test value CREAT: 0.000
  T-test value GLOB: 0.361
  T-test value GLU: 0.695
  T-test value K: 0.152
  T-test value NA: 0.738
  T-test value PHOS: 0.831
  T-test value TBILI: 0.663
  T-test value TP: 0.492
  T-test value TRIG: 0.540
[1]; Panel (all six strains)
  T-test value ALB: 0.000
  T-test value ALP: 0.000
  T-test value ALT: 0.693
  T-test value ANION GAP: 0.014
  T-test value AST: 0.227
  T-test value BICARB: 0.000
  T-test value BUN: 0.000
  T-test value CA: 0.974
  T-test value CHOL: 0.000
  T-test value CREAT: 0.000
  T-test value GGT: 0.024
  T-test value GLOB: 0.016
  T-test value GLU: 0.561
  T-test value K: 0.000
  T-test value NA: 0.414
  T-test value PHOS: 0.004
  T-test value TBILI: 0.027
  T-test value TP: 0.487
  T-test value TRIG: 0.058
[1]; WKYxBN rats
  T-test value ALB: 0.337
  T-test value ALP: 0.956
  T-test value ALT: 0.222
  T-test value ANION GAP: 0.485
  T-test value AST: 0.189
  T-test value BICARB: 0.649
  T-test value BUN: 0.001
  T-test value CA: 0.064
  T-test value CHOL: 0.000
  T-test value CREAT: 0.002
  T-test value GGT: 0.170
  T-test value GLOB: 0.007
  T-test value GLU: 0.968
  T-test value K: 0.014
  T-test value NA: 0.165
  T-test value PHOS: 0.081
  T-test value TBILI: 0.379
  T-test value TP: 0.458
  T-test value TRIG: 0.210
[1]; WKYxF344 rats
  T-test value ALB: 0.001
  T-test value ALP: 0.000
  T-test value ALT: 0.604
  T-test value ANION GAP: 0.868
  T-test value AST: 0.934
  T-test value BICARB: 0.004
  T-test value BUN: 0.000
  T-test value CA: 0.037
  T-test value CHOL: 0.004
  T-test value CREAT: 0.000
  T-test value GLOB: 0.007
  T-test value GLU: 0.155
  T-test value K: 0.583
  T-test value NA: 0.872
  T-test value PHOS: 0.282
  T-test value TBILI: 0.008
  T-test value TP: 0.054
  T-test value TRIG: 0.041
[1]; WKYxLEW rats
  T-test value ALB: 0.453
  T-test value ALP: 0.342
  T-test value ALT: 0.874
  T-test value ANION GAP: 0.033
  T-test value AST: 0.689
  T-test value BICARB: 0.266
  T-test value BUN: 0.009
  T-test value CA: 0.870
  T-test value CHOL: 0.019
  T-test value CREAT: 0.025
  T-test value GGT: 0.363
  T-test value GLOB: 0.057
  T-test value GLU: 0.289
  T-test value K: 0.137
  T-test value NA: 1.000
  T-test value PHOS: 0.055
  T-test value TBILI: 0.364
  T-test value TP: 0.008
  T-test value TRIG: 0.677
[2]
  degree of proteinuria, glucose excretion and histologic damage to renal proximal tubules between the strains: marked differences

## CCOC(=O)C(C)(C)Oc1ccc(Cl)cc1 [clofibrate]
[3]
  variation in magnitude of the fall in plasma triglyceride levels: 3 fold
[4]
  AST levels (predictor of liver toxicity): not significantly affected
[5]; all the strains
  liver hypertrophy: hypertrophy of the liver
[5]; left lateral lobe sections, clofibrate vs. vehicle
  histopathology differences between the strains within the Panel: no quantitative differences
[6]
  hepatotoxic effects relative to other strains (FAO activity): resistant
